According to paper PMC10205807, “Cross-species comparison in nonclinical pharmacokinetics of lenvatinib by a simple HPLC with ultraviolet detection” (Scientific Reports, 2023):

Key:
[1] = PK study in dogs (intravenous and oral); assay type: in vivo
Description: Male beagle dogs purchased from Marshall Farm USA Inc. (NY, USA) were used for the PK study. Dogs were 16 months old when the PK study was conducted. The PK study was performed in a cross-over design with 8 days interval between the doses. Dogs were fasted a day before the PK study and feeding was resumed 4 h postdose. Dosing solution of lenvatinib used in the dog PK study was the same as that in the rodent PK studies. Lenvatinib was intravenously administered at the dose of 3 mg/kg via cephalic vein. Oral administration of lenvatinib was conducted at 3 mg/kg by using a tube with a disposable syringe, and then the dosing tube was given ca. 30 mL of water to flush the remaining dosing solution in the tube. The number of dogs at each dose was four. Approximately 0.5 mL of blood samples were serially obtained from the cephalic vein using a heparinized syringe at pre-dose, and at 5, 15 and 30 min, and 1, 2, 4, 6, 8, 12 and 24 h post-dose. Plasma sample preparation and sample storage were the same as those in the rodent PK studies. PK parameters of lenvatinib were estimated by model independent analysis using a WinNonlin program (Version 4.1, Pharsight Corporation, Mountain View, CA). The time to reach the maximum plasma concentration (Tmax) and the maximum plasma concentration (Cmax) values were obtained directly from the plasma concentration data. Terminal half-life (T1/2) was calculated by ln2/ke, where ke is the slope of the regression line that fits the portion of the terminal phase (at least three time points) in the log-linear concentration–time curve. AUC0–t and AUMC0–t, the area under the concentration–time curves and the area under the first moment curve, from time = zero to time = t, respectively, were calculated using the lenvatinib concentrations in plasma by the linear/log trapezoidal method. AUC0–inf was calculated by AUC0–t + Ct/ke, and AUMC0–inf was AUMC0–t + Ct × t/ke + Ct/(ke)^2, where Ct is the last measurable concentration at time = t. The plasma concentration at time zero for the intravenous dose was extrapolated, while zero was used for the oral doses. Mean residence time (MRT), total plasma clearance (CLtot) and the volume of distribution at steady state (Vdss) were calculated by AUMC0–inf/AUC0–inf, Dose/AUC0–inf and CLtot × MRT, respectively. Oral bioavailability (F) was estimated by comparing dose-normalized AUC0–inf after oral (AUC0–inf.po) and intravenous (AUC0–inf.iv) administration as follows: F (%) = (AUC0–inf.po/AUC0–inf.iv) × 100.

[2] = Stability of lenvatinib in dog plasma and processed samples; assay type: physicochemical, dogs; details: dog plasma; for Freeze/thaw stability, mean percentage bias from the theoretical values: 3 cycles
Description: (§1) Calibration samples and QC samples for the reproducibility assessment were prepared by spiking 0.05 mL of the working standard solutions to blank plasma (0.05 mL), and QC samples for the stability assessment were prepared by fortifying 0.05 mL of the solution to 1.5 mL of bank plasma. Lenvatinib concentrations in plasma were 0.005, 0.01, 0.03, 0.1, 0.3, 1, 3, 10, 30, and 100 μg/mL for the calibration samples, and were 0.005, 0.01, 1, and 100 μg/mL for the QC samples for reproducibility assessment. Lenvatinib concentrations of QC samples for the stability assessment were 0.01, 1, and 80 μg/mL.
The developed method for the determination of lenvatinib concentrations in plasma was validated and the following validation parameters including linearity, selectivity, intra- and inter-batch reproducibility, extraction recovery, and stability were evaluated in accordance with the bioanalytical guidelines by United States Food and Drug Administration (US-FDA)[7]. […] In the linearity assessment, accuracy of each calibration sample was determined to ensure that relative error (RE) at each concentration was within ± 15% (within ± 20% at the LLOQ). […] Intra-batch accuracy and precision were evaluated using QC samples at the four concentrations, LLOQ, low QC (LQC), mid QC (MQC), and ULOQ. […] Inter-batch accuracy and precision were evaluated by testing a single sample at each concentration across five batches (n = 5 in total). […] Extraction recoveries of lenvatinib and the IS from plasma samples of the four species were evaluated. The recoveries of lenvatinib at the low, mid, and high QC levels (triplicates per concentration), and that of the IS (0.5 μg/mL) were determined. […] Stability of lenvatinib in plasma and processed samples was assessed at the low and high QC levels. Lenvatinib concentrations in samples after storage were compared to the theoretical concentrations and RE values were calculated. […] Freeze–thaw stability in plasma was evaluated up to three freeze–thaw cycles and frozen stability in plasma was evaluated at − 15 °C or below for 4 weeks (mice, rats, and dogs) or 6 weeks (monkeys). […]

[3] = Stability of lenvatinib in monkey plasma and processed samples; assay type: physicochemical, monkeys; details: monkey plasma; for Freeze/thaw stability, mean percentage bias from the theoretical values: 3 cycles; for Frozen stability, mean percentage bias from the theoretical values: below − 15 °C, 6 weeks
Description: as §1
The developed method for the determination of lenvatinib concentrations in plasma was validated and the following validation parameters including linearity, selectivity, intra- and inter-batch reproducibility, extraction recovery, and stability were evaluated in accordance with the bioanalytical guidelines by United States Food and Drug Administration (US-FDA)[7]. The peak height ratios of lenvatinib to the IS of calibration samples were plotted against the corresponding nominal concentrations of lenvatinib. The calibration curve was prepared by the least square method with 1/(concentration)^2 as the weighting factor. In the linearity assessment, accuracy of each calibration sample was determined to ensure that relative error (RE) at each concentration was within ± 15% (within ± 20% at the LLOQ). In the selectivity assessment, peak heights at the retention times of lenvatinib and the IS should be within 20% and 5% of those of the LLOQ for lenvatinib and the IS, respectively in blank plasma from six individuals. Intra-batch accuracy and precision were evaluated using QC samples at the four concentrations, LLOQ, low QC (LQC), mid QC (MQC), and ULOQ. Six replicates per concentration were assayed to calculate RE and relative standard deviation (RSD). Inter-batch accuracy and precision were evaluated by testing a single sample at each concentration across five batches (n = 5 in total). The acceptance criteria for RE and RSD in the intra- and inter-batch reproducibility should be within ± 15% and 15%, respectively, except at the LLOQ that was within ± 20% and 20%, respectively, was allowed. Extraction recoveries of lenvatinib and the IS from plasma samples of the four species were evaluated. The recoveries of lenvatinib at the low, mid, and high QC levels (triplicates per concentration), and that of the IS (0.5 μg/mL) were determined. Peak heights of lenvatinib after extraction from plasma samples were compared to those of the neat solution with the same concentrations. Stability of lenvatinib in plasma and processed samples was assessed at the low and high QC levels. Lenvatinib concentrations in samples after storage were compared to the theoretical concentrations and RE values were calculated. The RE values should be within ± 15% when considered stable. Freeze–thaw stability in plasma was evaluated up to three freeze–thaw cycles and frozen stability in plasma was evaluated at − 15 °C or below for 4 weeks (mice, rats, and dogs) or 6 weeks (monkeys). Stability in processed samples was assessed at 4 °C for 7 days. Stability of lenvatinib in the standard solutions was evaluated for the stock (100 μg/mL) and the working solution (5 ng/mL). The stability of the IS solution (0.5 μg/mL) was also assessed. The standard solutions were stored at 5 °C for 4 weeks or 6 h at ambient temperature. The peak height of the stored solutions was compared to that of the freshly prepared solution. […]

[4] = male, beagle, dog, plasma, intravenous 3 mg/kg
[5] = male, beagle, dog, plasma, oral 3 mg/kg

CLint (hepatic intrinsic clearance) ([1]; estimated from oral PK, Fa and Fg assumed unity, BW 10 kg): 61,500 mL/h
AUC(0-inf) [1, 4]: 8420 ± 927 ng·h/mL
MRT [1, 4]: 4.34 ± 0.36 h
half-life [1, 4]: 5.27 ± 0.83 h
C0 ([1]; male, beagle, dog, plasma, intravenous 3 mg/kg, extrapolated): 2440 ± 303 ng/mL
clearance ([1]; male, beagle, dog, plasma, intravenous 3 mg/kg, read-out: CLtot (converted)): 6.13 mL/min/kg
Vd ([1]; male, beagle, dog, plasma, intravenous 3 mg/kg, read-out: Vdss): 1.61 ± 0.249 L/kg
AUC(0-inf) [1, 5]: 5480 ± 1370 ng·h/mL
Cmax [1, 5]: 1270 ± 302 ng/mL
MRT [1, 5]: 4.81 ± 0.25 h
half-life [1, 5]: 4.76 ± 0.94 h
bioavailability ([1]; male, beagle, dog, plasma, oral 3 mg/kg vs intravenous 3 mg/kg, read-out: F (oral bioavailability)): 70.4 ± 23.1%
Tmax ([1]; male, beagle, dog, plasma, oral 3 mg/kg, median (range)): 2 h
Freeze/thaw stability, mean percentage bias from the theoretical values ([2]; HQC 80 μg/mL): 0.6%
Freeze/thaw stability, mean percentage bias from the theoretical values ([2]; MQC 1 μg/mL): 1.5%
Frozen stability, mean percentage bias from the theoretical values ([2]; below − 15 °C, 4 weeks, HQC 80 μg/mL): 3.1%
Freeze/thaw stability, mean percentage bias from the theoretical values ([3]; HQC 80 μg/mL): 1.6%
Freeze/thaw stability, mean percentage bias from the theoretical values ([3]; MQC 1 μg/mL): 2.3%
Frozen stability, mean percentage bias from the theoretical values ([3]; HQC 80 μg/mL): 7.0%
Frozen stability, mean percentage bias from the theoretical values ([3]; LQC 0.01 μg/mL): 2.0%
Frozen stability, mean percentage bias from the theoretical values ([3]; MQC 1 μg/mL): 4.2%
SMILES: COc1cc2nccc(Oc3ccc(NC(=O)NC4CC4)c(Cl)c3)c2cc1C(N)=O [lenvatinib, Lenvatinib]
